Test results published in PubChem BioAssay (NCI).
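These data come from cells grown in 96-well plates and exposed to compound for 48 hours at five concentrations. GI50 = concentration required for 50% inhibition of growth. Definition used: TGI = concentration required for complete inhibition of growth.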

Columns and labels:
Assay in all cases: growth of human tumour cells (NCI), 48 h
[1] = tested on: PC-3 prostate
[2] = tested on: HS 578T breast
[3] = tested on: ACHN renal
[4] = tested on: UO-31 renal
[5] = tested on: OVCAR-4 ovarian
[6] = tested on: RXF 393 renal
[7] = tested on: NCI-H226 lung
[8] = tested on: SK-MEL-2 melanoma
[9] = tested on: KM12 colon

Structure (SMILES) | GI50 [1] | TGI [1] | GI50 [2] | TGI [2] | GI50 [3] | TGI [3] | GI50 [4] | TGI [4] | GI50 [5] | TGI [5] | GI50 [6] | TGI [6] | GI50 [7] | TGI [7] | GI50 [8] | TGI [8] | GI50 [9] | TGI [9]
COc1cc(-n2cc(-c3ccc(F)cc3)[nH]c2=O)cc(OC)c1OC | > 100 µM | > 100 µM | 69.3 µM | > 100 µM | > 100 µM | > 100 µM | > 100 µM | > 100 µM | > 100 µM | > 100 µM | > 100 µM | > 100 µM | > 100 µM | > 100 µM | > 100 µM | > 100 µM | > 100 µM | > 100 µM
COc1cc(F)ccc1-c1ncnc(Nc2cccc(CS(C)(=N)=O)c2)n1 (configuration not stated) | 1.28 µM | 7.7 µM | 1.21 µM | 23.9 µM | 0.476 µM | > 100 µM | 0.528 µM | > 100 µM | 2.4 µM | > 100 µM | 0.239 µM | 0.534 µM | 0.497 µM | > 100 µM | 1.08 µM | 3.47 µM | 0.561 µM | > 100 µM
O=C(CC1(O)C(=O)N(Cc2ccccc2)c2ccc(F)cc21)c1ccc(C(=O)NCC2CCC3(CC2)OOC2(CCCCC2)OO3)cc1 (configuration not stated) | 0.99 µM | 3.21 µM | 1.92 µM | 6.08 µM | 0.179 µM | 0.363 µM | 0.18 µM | 0.352 µM | 1.81 µM | 4.62 µM | 0.317 µM | 0.851 µM | 1.1 µM | 4.19 µM | 2 µM | 4.13 µM | 0.338 µM | 1.19 µM
COc1ccc2c(c1)C(=O)c1c-2c(N2CCN(C(=O)CNCCNCCO)CC2)nc2ccccc12 | 5.57 µM | 18.7 µM | 5.92 µM | 25.7 µM | 11 µM | 24.9 µM | 1.89 µM | 4.54 µM | 6.71 µM | 19.4 µM |  |  | 10.9 µM | 29.5 µM | 2.2 µM | 4 µM | 2.48 µM | 5.79 µM
[N-]=[N+]=N[C@H]1C[C@@H](CO)O[C@H]1n1cnc2c(N)ncnc21 |  |  |  |  |  | > 100 µM |  | > 100 µM |  | > 100 µM |  |  |  | > 100 µM |  | > 100 µM |  | > 100 µM
NC(=O)C12CC3CC(CC(F)(C3)C1)C2 |  |  |  |  |  | > 100 µM |  | > 100 µM |  |  |  | > 100 µM |  |  |  | > 100 µM |  | > 100 µM
CC1c2c(Cl)nc3ccccc3c2Oc2c1c(Cl)nc1ccccc21 |  |  |  |  |  | > 100 µM |  | > 100 µM |  |  |  | > 100 µM |  |  |  | > 100 µM |  | > 100 µM
Cc1cc(Cl)ccc1NC(=O)C(=O)Cc1nc2ccccc2o1 |  |  |  |  |  | > 100 µM |  | > 100 µM |  | > 100 µM |  | > 100 µM |  |  |  | > 100 µM |  | > 100 µM
CCOC(=O)C(=[N+]=[N-])[Si](C)(C)C |  |  |  |  |  | > 100 µM |  |  |  | > 100 µM |  | > 100 µM |  |  |  | > 100 µM |  | > 100 µM
COc1cccc(C2=NC(C(C)C)CO2)c1 (configuration not stated) |  |  |  |  |  | > 100 µM |  | > 100 µM |  | > 100 µM |  | > 100 µM |  | > 100 µM |  | > 100 µM |  | > 100 µM
Cc1cc(N(CCC#N)CCC#N)ccc1N=Nc1ccc(C(=O)O)cc1 |  |  |  |  |  | > 100 µM |  | > 100 µM |  | > 100 µM |  | > 100 µM |  | > 100 µM |  | > 100 µM |  | > 100 µM
O=c1ccn([C@H]2CSC[C@@H](CO)C2)c(=O)[nH]1 |  |  |  |  |  | > 100 µM |  | > 100 µM |  | > 100 µM |  |  |  | > 100 µM |  | > 100 µM |  | > 100 µM
CN(C)CC[PH+](c1ccccc1)c1ccccc1.CN(C)CC[PH+](c1ccccc1)c1ccccc1.[Cl-].[Pd+2] | > 100 µM | > 100 µM | > 100 µM | > 100 µM | > 100 µM | > 100 µM | > 100 µM | > 100 µM | > 100 µM | > 100 µM |  |  | > 100 µM | > 100 µM |  |  | > 100 µM | > 100 µM
CC(=O)Oc1c2c(c(O)c3ccccc13)C(n1cnc3c(ncn3C3OC(CO)C4OC(C)(C)OC43)c1=N)CCC2 (configuration not stated) |  |  |  |  |  | 30.9 µM |  | 29.8 µM |  |  |  | 32.3 µM |  | 52.8 µM |  | 29.4 µM |  | 29 µM
COc1ccc(CC2NCCc3c2[nH]c2ccccc32)cc1 (configuration not stated) |  |  |  |  |  | > 100 µM |  | > 100 µM |  | > 100 µM |  |  |  | > 100 µM |  | > 100 µM |  | > 100 µM
O=C(CCc1n[nH]c(=S)o1)Nc1ccccc1C(F)(F)F |  |  |  |  |  | > 100 µM |  | > 100 µM |  | > 100 µM |  |  |  | > 100 µM |  |  |  | > 100 µM
O=C1/C(=C/c2ccc3c(c2)OCO3)SC2C=Nc3ccccc3N12 (configuration not stated) |  |  |  |  |  | > 100 µM |  | > 100 µM |  | > 100 µM |  | > 100 µM |  | > 100 µM |  | > 100 µM |  | > 100 µM
OCC1OC(c2nc(C3=NCCCN3)cs2)C(O)C1O (configuration not stated) |  |  |  |  |  | > 100 µM |  | > 100 µM |  | > 100 µM |  |  |  | > 100 µM |  | > 100 µM |  | > 10 µM
Cc1ccccc1N1C(=O)C2C=CC(n3[nH]c(=O)n(Cc4ccccc4)c3=O)CC2C1=O (configuration not stated) |  |  |  |  |  | > 100 µM |  | > 100 µM |  |  |  | > 100 µM |  | > 100 µM |  | > 100 µM |  | > 100 µM
